In patent publication US20220057405A1, “CELLS AND METHODS FOR EVALUATING THE ACTIVITY OF ORGANIC ANION TRANSPORTING POLYPEPTIDE 2A1 (OATP2A1)” (ABSORPTION SYSTEMS LLC, priority 2019, published 2022):
Like-named read-outs stand apart in the source and are kept apart here.

How the values were obtained:
[1] = molecular target: T1, OATP2A1 (Homo sapiens, UniProt Q92959); experiment: OATP2A1 inhibition assay, cellular uptake of 5,6-Carboxy-SNARF with HEK293-OATP2A1 cells; format: cell-based; conditions: HEK293-OATP2A1 cells, 5,6-Carboxy-SNARF substrate, pH 7.4
Protocol: (§1) Assay procedure—HEK293-OATP2A1 cells and the vector control HEK293-VC-Neo cells were plated at 250,000 cells per well on 24 well poly-D-Lysine coated (BioCoat™) plates (Corning) in complete DMEM medium and grown for 48 hrs at 37 C.
(§2) Cellular uptake of the fluorescent substrates 6-CF and 5,6-carboxy-SNARF-1 was assessed by incubating the HEK293-OATP2A1 and HEK293-VC-Neo cells with 10 μM 6-CF and 5 μM 5,6-carboxy-SNARF-1 for 15 and 20 min, correspondingly. For incubations with 6-CF, 1×HBSS pH 5.6 was used without pH adjustment. For the uptake of 5,6-carboxy-SNARF-1, the pH of 1×HBSS was adjusted to 7.4 with Bis-Tris/HCl. After the incubation, the media was aspirated, the cells were washed twice with ice-cold HBSS and lysed with 450 μL of the lysis buffer without the protease inhibitors. Two 150-μL samples from each well of the 24-well plates were taken and transferred into separate wells on black opaque 96-well Opti-plates (PerkinElmer). Fluorescence intensities were measured using λex 483(14) nm and λem 530(30) for 6-CF and λex 576(15) nm and λem 640(10) for 5,6-carboxy-SNARF-1 on a CLARIOstar® multimode microplate reader (BMG LABTECH). 20 μL of the samples used for fluorescence measurement were transferred into clear polystyrene flat-bottom 96-well plates (Thermo Fisher Scientific) and protein concentration was determined.
All compounds were acquired from Sigma-Aldrich as solid powders and 10 mM stocks were made either in DMSO or HBSS (see Table 1). Serial dilutions of the compounds were made using 3.162-fold […] dilution factor either with DMSO or HBSS at the concentrations 1,000 higher than the final concentrations in the assay. These 1,000× solutions were further diluted 1:100 with HBSS in 2-mL polypropylene deep 96-well block (VWR) to make 10× working stock solutions of the inhibitors.
HEK293-OATP2A1 and HEK293-VC-Neo cells were cultured. The media was aspirated and 800 μL of HBSS was added to each well followed by the addition of 100 μL of the 10× working stock solutions of the inhibitors. The plates were incubated for 5 min at RT, and the assay was started by the addition of 100 μL of either 100 μM 6-CF or 50 μM 5,6-carboxy-SNARF-1 in HBSS.
(§3) Concentrations of the fluorescent substrates of OATP2A1 in cell lysates were determined by measuring fluorescence intensities of the lysates and calculating concentrations of either 6-CF or 5,6-carboxy-SNARF-1 using linear calibration curves obtained from fluorescence intensities of the standard solutions of the fluorescent probes prepared in the same lysis buffer on the same 96-well assay plate. In order to account for differences in cell densities between the wells, protein concentration in the lysates was measured and used for calculating normalized uptake of the fluorescent substrates as follows:
(§4) Using uninhibited normalized uptake values obtained with HEK293-OATP2A1 and HEK293-VC-Neo cells in 0.1% DMSO in HBSS as the high and low controls of the assay, the % Control and % Inhibition values were calculated as follows: […]
(§5) The IC50 values were calculated from non-linear 4-parameter fit of the % Inhibition values vs. concentration of the inhibitors using GraphPad Prism 5 software. The same software was used for obtaining KM and Vmax values from a non-linear fit of the rate vs. substrate concentration fit into classic Michaelis-Menten equation: […]

[2] = molecular target: T1, OATP2A1; experiment: OATP2A1 inhibition assay, cellular uptake of 6-CF with HEK293-OATP2A1 cells; format: cell-based; conditions: 6-CF substrate, pH 5.5
Protocol: as §1, §2
All compounds were acquired from Sigma-Aldrich as solid powders and 10 mM stocks were made either in DMSO or HBSS (see Table 1). Serial dilutions of the compounds were made using 3.162-fold […] dilution factor either with DMSO or HBSS at the concentrations 1,000 higher than the final concentrations in the assay. […]
as §3, §4
The IC50 values were calculated from non-linear 4-parameter fit of the % Inhibition values vs. concentration of the inhibitors using GraphPad Prism 5 software. […]

[3] = molecular target: T1, OATP2A1; conditions: published potencies of the OATP2A1 inhibitors; read-out: IC50, Literature (Kamo et al., J Pharma Sci, 2017); cited from earlier work
[4] = molecular target: T1, OATP2A1; experiment: Cellular uptake assay with fluorescent substrate of OATP2A1 in HEK293-OATP2A1 cells; format: cell-based
Protocol: Key reagents—6-Carboxyfluorescein (6-CF) was purchased from Toronto Research Chemicals (Cat. No. C178325); 5,6-carboxy-SNARF-1 (5,6-Carboxy-seminaphthorhodafluor-1) was obtained from Thermo Fisher Scientific (Cat. No. C1270).
as §1
as §2, with “Cellular uptake of the fluorescent substrates 6-CF and 5,6-carboxy-SNARF-1 was assessed by incubating the HEK293-OATP2A1 and HEK293-VC-Neo cells with 10 μM 6-CF and 5 μM 5,6-carboxy-SNARF-1 for 15 and 20 min, correspondingly.” left out
as §3, §5
Where: • CS is the substrate concentration in cell lysate • CP is the protein concentration in cell lysate • NUTC is the normalized uptake of the substrate in the presence of test article or inhibitor • NUHEK293-VC-Neo is the uninhibited (0.1% DMSO) normalized uptake by vector control cells • NUHEK293-OAM2A1 is the uninhibited (0.1% DMSO) normalized uptake by HEK293-OATP2A1 cells • Vt is the rate of the substrate uptake expressed as Normalized Uptake • Vmax is the calculated maximal rate of the substrate uptake by HEK293-OATP2A1 cells • S is the concentration of the fluorescent substrate of OATP2A1 • KM is the calculated Michaelis constant.

[5] = test system: HEK293-VC-Neo cells; experiment: Cellular uptake of fluorescent substrate by vector control cells; format: cell-based, human; conditions: first 30 min of the assay (FIG. 6A, pH 7.5)
Protocol: as §1
as §2, with “Cellular uptake of the fluorescent substrates 6-CF and 5,6-carboxy-SNARF-1 was assessed by incubating the HEK293-OATP2A1 and HEK293-VC-Neo cells with 10 μM 6-CF and 5 μM 5,6-carboxy-SNARF-1 for 15 and 20 min, correspondingly.” left out, “Two 150-μL samples from each well of the 24-well plates were taken and transferred into separate wells on black opaque 96-well Opti-plates (PerkinElmer).” left out
as §3, with “In order to account for differences in cell densities between the wells, protein concentration in the lysates was measured and used for calculating normalized uptake of the fluorescent substrates as follows:” left out

Row | Compound | IC50 [1] [nM] | IC50 [2] [nM] | IC50 [3] [nM] | other results
1 | CCCc1nc(C(C)(C)O)c(C(=O)O)n1Cc1ccc(-c2ccccc2-c2nnn[nH]2)cc1 [Olmesartan] | 554 | 492 | 970 | 
2 | O=C(O)c1ccc2c(c1)C1(OC2=O)c2ccc(O)cc2Oc2cc(O)ccc21 [Compound 6-CF, 6-Carboxyfluorescein] |  |  |  | rate of uptake by HEK293-OATP2A1 cell line compared to the control cells ([4]; FIG. 2, vs vector control cells HEK-VC-Neo): ≥ 230 fold; uptake by HEK293-OATP2A1 cell line vs rate of uptake by the control cells ([4]; pH 6.5 (FIG. 6B)): 233 times; uptake by HEK293-OATP2A1 cell line vs rate of uptake by the control cells ([4]; sentence following the initial rates of FIG. 6A): more than 1400 times
3 | O=C(Nc1cccc2c(=O)cc(-c3nnn[nH]3)oc12)c1ccc(OCCCCc2ccccc2)cc1 [Pranlukast] | 148 | 142 | 550 | 
4 | COc1cc(C(=O)NS(=O)(=O)c2ccccc2C)ccc1Cc1cn(C)c2ccc(NC(=O)OC3CCCC3)cc12 [Zafirlukast] | 1110 |  | 1600 | 
5 | 5,6-Carboxy-seminaphthorhodafluor-1 [5,6-Carboxy-SNARF] |  |  |  | S:B in uptake assay ([4]; HEK293-OATP2A1 cell line, time-course, pH 7.5 (FIG. 6A)): 142; initial rate of the uptake ([4]; HEK293-OATP2A1 cells, first 30 min of the assay (FIG. 6A, pH 7.5)): 99.1 pmol/mg/min; Km ([4]; OATP2A1-mediated uptake in HEK293-OATP2A1 cell line, Michaelis-Menten fit (FIG. 5)): 29 ± 9 µM; transporter specificity ([4]; OATP2A1 vs. OATP2B1 transporters (FIG. 4A)): specific for OATP2A1 vs. OATP2B1; initial rate of the uptake [5]: 0.7 pmol/mg/min

More lines, main results first:

Row | IC50 [1] [nM] | IC50 [2] [nM] | Compound | IC50 [3] [nM] | other results
6 | 186 | 222 | Cc1ccc(C(=O)Nc2ccc(S(=O)(=O)O)c3cc(S(=O)(=O)O)cc(S(=O)(=O)O)c23)cc1NC(=O)c1cccc(NC(=O)Nc2cccc(C(=O)Nc3cc(C(=O)Nc4ccc(S(=O)(=O)O)c5cc(S(=O)(=O)O)cc(S(=O)(=O)O)c45)ccc3C)c2)c1 [Suramin] | 170 | 
7 | 1210 | 1280 | CCCCc1nc(Cl)c(CO)n1Cc1ccc(-c2ccccc2-c2nn[nH]n2)cc1 [Losartan] | 1760 | 
